# Tests used:
# Type in all cases: cell-based, human
# TNF-alpha [1] = experiment: TNF-alpha production by PBMC from healthy volunteers, Cytometric Bead Array (CBA); settings: 24 hours, mean ± standard error, n=13
# Description: (§1) CBA protocol was followed according to the manufacturer's instructions. The election of microparticles was performed following the summary of Figure 1.
# (§2) The acquisition on samples was performed with the BD FACS Array Bioanalyser System (FACSArray, Becton Dickinson, San José, CA, USA) and the analysis of the results was completed with the software FCAP Array (Becton Dickinson) in a PC computer.
# (§3) Briefly, the experimental protocol consisted of a plate pre-washing out with Wash Buffer. After decantation, the mixture of capture microparticles was re-suspended in the vortex. Standards and samples were added in the adequate dilution. After permanent stirring incubation during 1 h, the PE detection reagent was added and incubated again during 2h at room temperature. After a washing-out, the acquisition was performed in the flow cytometer. Table 3. -Kit CBA Human Soluble Protein Multiplex Flex Set System.
# PBMC (5 x 10^4 cells/well) from 13 healthy volunteers were cultured in duplicate in 200 µl of complete medium supplemented with the highest solvent concentration (10^-6 M), […] the absence of LPS (10µg/ml) during 24 hours. Supernatant of cultures were frozen at -20°C and quantification was carried out by BD FACS Array Bioanayliser (BD Biosciences Cat No. 340128, San Diego CA 92121) by using specific reagents for the simultaneous assay of the indicated cytokines concentration (CBA Flex Multiplex Set (BD™ Cytometric Bead Array, CBA: IL-8, IL-10, TNF-alpha and IFN-gamma Becton Dickinson Biosciences Pharmingen, San Diego CA 92121).
# TNF-alpha [2] = experiment: TNF-alpha production by PBMC from patients with rheumatoid arthritis, CBA; settings: 24 hours, mean ± standard error, n=7
# Description: as §1, §2, §3
# In another experiment, PBMC (5 x 10^4 cells per well) from 7 patients with rheumatoid arthritis were cultured in duplicate in 200 µl of complete medium supplemented with the highest solvent (10^-6 M), and 10^-6 M, 10^-7 M and 10^-8 M compound 12 and in the presence and absence of either LPS (10 µg/ml), or anti-CD3 (12.5ng/ml) (Orthoclone OKT3, Ortho Pharmaceutical Corporation, Raritan NJ, USA) + anti-CD28 (1/3x10^5) (Clon 15E8, Menarini, Madrid, Spain), during 24 hours. Culture supernatants were frozen at -20°C and the concentration of TNF-alpha quantified by BD FACS Array Bioanalyser by using CBA Flex Set (Becton Dickinson), specific for determining the concentration of that cytokine, following the manufacturer instructions.
# IFN-gamma = IFN-gamma production by PBMC from patients with rheumatoid arthritis, CBA; settings: 24 hours, mean ± standard error, n=8
# Description: as §1, §2, §3
# PBMC (5 x 10^4 cells/well) from 8 patients with rheumatoid arthritis were cultured in duplicate 200 µl of complete medium supplement with the highest solvent concentration (10^-6 M), and 10^-6 M, 10^-7 M and 10^-8 M of compound 12, in the presence and absence either of LPS (10 µg/ml), or anti-CD3 (12.5 ng/ml) + anti-CD28 (1/3x10^5), during 24 hours. Culture supernatants were frozen at -20°C and IFN-gamma concentration was assessed by BD FACS Array Bioanalyser by using CBA Flex Set, specific to determine IFN-gamma concentration, following the manufacturer instructions.
# IL-10 = IL-10 production by PBMC from healthy volunteers, CBA; settings: 24 hours, mean ± standard error, n=13
# Description: as §1, §2, §3
# The effects of compound 12 on IL-10 production by the PBMC from healthy volunteers and patients with rheumatoid arthritis were investigated in the presence and absence of LPS stimulation and with the combination of monoclonal antibodies anti-CD3 and anti-CD28. PBMC (5 x 10^4 cells per well) from 13 healthy volunteers were cultured in duplicate 200 µl of complete medium supplemented with the highest solvent concentration (10^-6 M), and 10^-6 M, 10^-7 M and 10^-8 M of compound 12, in the presence and absence of either LPS (10 µg/ml) or anti-CD3 (12.5 ng/ml), + anti-CD28 (1/3x10^5), during 24 hours.
# On the other hand, PBMC (5 x 10^4 cells per well) from 8 patients with rheumatoid arthritis were cultured in duplicate in 200 µl of complete medium supplemented with the highest solvent concentration (10^-6 M), and 10^-6 M, 10^-7 M and 10^-8 M of compound 12 in the presence and absence of either LPS (10 µg/ml) or anti-CD3 (12.5 ng/ml), + anti-CD28 (1/3x10^5), during 24 hours. Culture supernatants were frozen at -20°C and IL-10 concentration was assayed by BD FACS Array Bioanalyser by using CBA Flex Set, specific to determine IL-10 concentration, following the manufacturer instructions.
smiles,measurement,setting,value
"Cc1nc(OC2CCCC2)c(-c2ccc(S(C)(=O)=O)cc2)s1 [compound 12, 4-cyclopentyloxy-5-(4-methylsulfonyl-phenyl)-2-methylthiazole]",TNF-alpha production in PMBC from healthy volunteers,"TNF-alpha [1]; LPS (10µg/ml), 10^-6 M, vehicle 923.93±160.00, p 0.002",602.12±100.00 (0.002) pg/mL
same,TNF-alpha production in PMBC from healthy volunteers,"TNF-alpha [1]; LPS (10µg/ml), 10^-7 M, vehicle 923.93±160.00, p 0.046",746.84±125.00 (0.046) pg/mL
same,TNF-alpha production in PMBC from healthy volunteers,"TNF-alpha [1]; LPS (10µg/ml), 10^-8 M, vehicle 923.93±160.00, p 0.055",738.81±100.00 (0.055) pg/mL
same,TNF-alpha production in PMBC from healthy volunteers,"TNF-alpha [1]; anti-CD3 (12.5 ng/ml) + anti-CD28 (1/3x10^5), 10^-6 M, vehicle 435.81±60.00, p 0.116",334.21±63.00 (0.116) pg/mL
same,TNF-alpha production in PMBC from healthy volunteers,"TNF-alpha [1]; anti-CD3 (12.5 ng/ml) + anti-CD28 (1/3x10^5), 10^-7 M, vehicle 435.81±60.00, p 0.753",404.11±97.00 (0.753) pg/mL
same,TNF-alpha production in PMBC from healthy volunteers,"TNF-alpha [1]; anti-CD3 (12.5 ng/ml) + anti-CD28 (1/3x10^5), 10^-8 M, vehicle 435.81±60.00, p 0.422",355.62±65.00 (0.422) pg/mL
same,TNF-alpha production in PMBC from healthy volunteers,"TNF-alpha [1]; medium, 10^-6 M, vehicle 163.84±30.00, p 0.422",148.31±50.00 (0.422) pg/mL
same,TNF-alpha production in PMBC from healthy volunteers,"TNF-alpha [1]; medium, 10^-7 M, vehicle 163.84±30.00, p 0.249",197.81±40.00 (0.249) pg/mL
same,TNF-alpha production in PMBC from healthy volunteers,"TNF-alpha [1]; medium, 10^-8 M, vehicle 163.84±30.00, p 0.65",168.49±16.00 (0.65) pg/mL
same,TNF-alpha production in PMBC from patients with rheumatoid arthritis,"TNF-alpha [2]; LPS (10µg/ml), 10^-6 M, vehicle 700.39±180.00, p 0.05",383.75±75.00 (0.05) pg/ml
same,TNF-alpha production in PMBC from patients with rheumatoid arthritis,"TNF-alpha [2]; LPS (10µg/ml), 10^-7 M, vehicle 700.39±180.00, p 0.237",626.57±150.00 (0.237) pg/ml
same,TNF-alpha production in PMBC from patients with rheumatoid arthritis,"TNF-alpha [2]; LPS (10µg/ml), 10^-8 M, vehicle 700.39±180.00, p 0.499",683.40±120.00 (0.499) pg/ml
same,TNF-alpha production in PMBC from patients with rheumatoid arthritis,"TNF-alpha [2]; anti-CD3 (12.5 ng/ml) + anti-CD28 (1/3x10^5), 10^-6 M, vehicle 648.72±90.00, p 0.31",532.07±80.00 (0.31) pg/ml
same,TNF-alpha production in PMBC from patients with rheumatoid arthritis,"TNF-alpha [2]; anti-CD3 (12.5 ng/ml) + anti-CD28 (1/3x10^5), 10^-7 M, vehicle 648.72±90.00, p 0.612",568.47±97.00 (0.612) pg/ml
same,TNF-alpha production in PMBC from patients with rheumatoid arthritis,"TNF-alpha [2]; anti-CD3 (12.5 ng/ml) + anti-CD28 (1/3x10^5), 10^-8 M, vehicle 648.72±90.00, p 0.398",695.81±79.00 (0.398) pg/ml
same,TNF-alpha production in PMBC from patients with rheumatoid arthritis,"TNF-alpha [2]; medium, 10^-6 M, vehicle 100.64±40.00, p 0.735",177.32±95.00 (0.735) pg/ml
same,TNF-alpha production in PMBC from patients with rheumatoid arthritis,"TNF-alpha [2]; medium, 10^-7 M, vehicle 100.64±40.00, p 0.735",191.33±80.00 (0.735) pg/ml
same,TNF-alpha production in PMBC from patients with rheumatoid arthritis,"TNF-alpha [2]; medium, 10^-8 M, vehicle 100.64±40.00, p 0.735",131.95±85.00 (0.735) pg/ml
same,IFN-gamma production in PMBC from patients with rheumatoid arthritis,"IFN-gamma; LPS (10µg/ml), 10^-6 M, vehicle 461.14±85.00, p 0.484",205.26±46.00 (0.484) pg/mL
same,IFN-gamma production in PMBC from patients with rheumatoid arthritis,"IFN-gamma; LPS (10µg/ml), 10^-7 M, vehicle 461.14±85.00, p 0.208",146.50±33.00 (0.208) pg/mL
same,IFN-gamma production in PMBC from patients with rheumatoid arthritis,"IFN-gamma; LPS (10µg/ml), 10^-8 M, vehicle 461.14±85.00, p 0.889",248.73±35.00 (0.889) pg/mL
same,IFN-gamma production in PMBC from patients with rheumatoid arthritis,"IFN-gamma; anti-CD3 (12.5 ng/ml) + anti-CD28 (1/3x10^5), 10^-6 M, vehicle 8406.18±1000.00, p 0.05",5115.27±600.00 (0.05) pg/mL
same,IFN-gamma production in PMBC from patients with rheumatoid arthritis,"IFN-gamma; anti-CD3 (12.5 ng/ml) + anti-CD28 (1/3x10^5), 10^-7 M, vehicle 8406.18±1000.00, p 0.05",6411.71±700.00 (0.05) pg/mL
same,IFN-gamma production in PMBC from patients with rheumatoid arthritis,"IFN-gamma; anti-CD3 (12.5 ng/ml) + anti-CD28 (1/3x10^5), 10^-8 M, vehicle 8406.18±1000.00, p 0.017",7122.07±950 (0.017) pg/mL
same,IFN-gamma production in PMBC from patients with rheumatoid arthritis,"IFN-gamma; medium, 10^-6 M, vehicle 145.49±28.00, p 0.779",193.68±45.00 (0.779) pg/mL
same,IFN-gamma production in PMBC from patients with rheumatoid arthritis,"IFN-gamma; medium, 10^-7 M, vehicle 145.49±28.00, p 0.208",203.72±50.00 (0.208) pg/mL
same,IFN-gamma production in PMBC from patients with rheumatoid arthritis,"IFN-gamma; medium, 10^-8 M, vehicle 145.49±28.00, p 0.674",235.10±60.00 (0.674) pg/mL
same,IL-10 production by PMBC from healthy volunteers,"IL-10; LPS (10µg/ml), 10^-6 M, vehicle 2342.20±384.02, p 0.507",2420.68±455.50 (0.507) pg/mL
same,IL-10 production by PMBC from healthy volunteers,"IL-10; LPS (10µg/ml), 10^-7 M, vehicle 2342.20±384.02, p 0.507",2392.99±427.86 (0.507) pg/mL
same,IL-10 production by PMBC from healthy volunteers,"IL-10; LPS (10µg/ml), 10^-8 M, vehicle 2342.20±384.02, p 0.701",2389.63±366.01 (0.701) pg/mL
same,IL-10 production by PMBC from healthy volunteers,"IL-10; anti-CD3 (12.5 ng/ml) + anti-CD28 (1/3x10^5), 10^-6 M, vehicle 1042.64±162.36, p 0.507",1239.47±251.24 (0.507) pg/mL
same,IL-10 production by PMBC from healthy volunteers,"IL-10; anti-CD3 (12.5 ng/ml) + anti-CD28 (1/3x10^5), 10^-7 M, vehicle 1042.64±162.36, p 0.382",1132.69±213.32 (0.382) pg/mL
same,IL-10 production by PMBC from healthy volunteers,"IL-10; anti-CD3 (12.5 ng/ml) + anti-CD28 (1/3x10^5), 10^-8 M, vehicle 1042.64±162.36, p 0.507",1122.51±211.03 (0.507) pg/mL
same,IL-10 production by PMBC from healthy volunteers,"IL-10; medium, 10^-6 M, vehicle 490.46±87.16, p 0.753",559.06±112.20 (0.753) pg/mL
same,IL-10 production by PMBC from healthy volunteers,"IL-10; medium, 10^-7 M, vehicle 490.46±87.16, p 0.701",609.10±108.74 (0.701) pg/mL
same,IL-10 production by PMBC from healthy volunteers,"IL-10; medium, 10^-8 M, vehicle 490.46±87.16, p 0.861",578.66±106.20 (0.861) pg/mL

# Reference: patent publication EP2135864A1, “5-(4-methanesulfonyl-phenyl)-thiazole derivatives for the treatment of acute and chronic inflammatory diseases” (FAES FARMA, S.A., priority 2008, dated 2009)
